Test results published in patent US8936916B2, “Polypeptides for microbial detection” (3M Innovative Properties Company, priority 2008, dated 2015).
Ends that are not written are not given here. * marks the point of attachment. Myristoyl = CCCCCCCCCCCCCC(=O)*

Experiment: Permeabilization of DPPC liposomes containing glucose oxidase by phosphorylated dermatoxin (absorbance at 538 nm)
Assay type: biochemical
Experimental: DPPC liposomes containing 5 mg/mL glucose oxidase were prepared as described in Example 2. Glucose oxidase activity was measured in a coupled enzyme reaction with horseradish peroxidase as described in Example 2. The various solutions were quickly added to each of the wells of a microplate using a multichannel pipette and the reactions were started (at T=0 hours) with the addition to the wells of a solution containing glucose and 4-AAP.
The ability of the phosphorylated dermatoxin to open liposomes in the presence of phosphatase was tested by preparing a developing solution as described in Example 2. One hundred-fifty microliters of the developing solution was placed in each well of a 96-well microplate. To each column in the plate was added 20 μL of TES buffer containing one of the following concentrations of unpurified dermatoxin: 3.3 mg/mL, 3.3×10^−1 mg/mL, 3.3×10^−2 mg/mL, 3.3×10^−3 mg/mL, 3.3×10^−4 mg/mL, 3.3×10^−5 mg/mL, 3.3×10^−6 mg/mL, or 3.3×10^−7 mg/mL. Negative control wells contained TES buffer with no dermatoxin. Positive control wells buffer contained TES buffer with Triton X-100. Ten-microliter aliquots of the following concentrations of DPPC liposomes (containing 5 mg/mL glucose oxidase) were added to wells in duplicate rows: 0.1 mg lipid/mL, 0.02 mg lipid/mL, 0.004 mg lipid/mL, or plain buffer. To one of the duplicate rows was added 20 μL of 2.5 mg/mL alkaline phosphatase in TES. The other duplicate row received 20 μL of TES buffer. Thus the final dermatoxin concentration in the well varied from […], and the final lipid concentration in the well ranged from 0.005 mg lipid/mL to 2.0×10^−4 mg lipid/mL.
The absorbance was recorded at 538 nm on a SpectraMax M5 plate reader (Molecular Devices, Sunnyvale, Calif.) after two hours incubation at room temperature, and also after overnight incubation (approximately 18 hours). Since the absorbance of several wells was saturated, the overnight samples were diluted 1:10 with 50 mmol TES and the absorbance of the diluted samples was measured.

In the case of “SLGSFLKGVGTTLASVGKVVSDQFGKLLQAGQ (Myristoyl-SLGSFLKGVGTTLASVGKVVSDQFGKLLQAGQ; also: phosphorylated) [phosphorylated dermatoxin, fully phosphorylated dermatoxin, unpurified crude preparation]”, the “Absorbance at 538 nm (cytolytic peptide activity)” value (from here on “Absorbance at 538 nm”) (2 hrs, lipid conc. 0, dermatoxin mass 3.3 × 10^−5 mg, with phosphatase) is reported as 0.122 absorbance units, the “Absorbance at 538 nm” value (2 hrs, lipid conc. 0, dermatoxin mass 3.3 × 10^−5 mg, without phosphatase) is reported as 0.121 absorbance units and the “Absorbance at 538 nm” value (2 hrs, lipid conc. 0, dermatoxin mass 3.3 × 10^−6 mg, with phosphatase) is reported as 0.120 absorbance units. The “Absorbance at 538 nm” value (2 hrs, lipid conc. 0, dermatoxin mass 3.3 × 10^−6 mg, without phosphatase) was 0.115 absorbance units, the “Absorbance at 538 nm” value (2 hrs, lipid conc. 0, dermatoxin mass 3.3 × 10^−7 mg, with phosphatase) was 0.118 absorbance units and the “Absorbance at 538 nm” value (2 hrs, lipid conc. 0, dermatoxin mass 3.3 × 10^−7 mg, without phosphatase) was 0.116 absorbance units. The “Absorbance at 538 nm” value (2 hrs, lipid conc. 0, dermatoxin mass 3.3 × 10^−8 mg, with phosphatase) was 0.119 absorbance units, the “Absorbance at 538 nm” value (2 hrs, lipid conc. 0, dermatoxin mass 3.3 × 10^−8 mg, without phosphatase) was 0.114 absorbance units and the “Absorbance at 538 nm” value (2 hrs, lipid conc. 0, dermatoxin mass 3.3 × 10^−9 mg, with phosphatase) was 0.118 absorbance units. For the same sequence, the “Absorbance at 538 nm” value (2 hrs, lipid conc. 0, dermatoxin mass 3.3 × 10^−9 mg, without phosphatase) was 0.113 absorbance units, the “Absorbance at 538 nm” value (2 hrs, lipid conc. 0.004, dermatoxin mass 3.3 × 10^−5 mg, with phosphatase) was 0.204 absorbance units and the “Absorbance at 538 nm” value (2 hrs, lipid conc. 0.004, dermatoxin mass 3.3 × 10^−5 mg, without phosphatase) was 0.200 absorbance units. For the same sequence, the “Absorbance at 538 nm” value (2 hrs, lipid conc. 0.004, dermatoxin mass 3.3 × 10^−6 mg, with phosphatase) was 0.197 absorbance units, the “Absorbance at 538 nm” value (2 hrs, lipid conc. 0.004, dermatoxin mass 3.3 × 10^−6 mg, without phosphatase) was 0.161 absorbance units and the “Absorbance at 538 nm” value (2 hrs, lipid conc. 0.004, dermatoxin mass 3.3 × 10^−7 mg, with phosphatase) was 0.130 absorbance units. For the same sequence, the “Absorbance at 538 nm” value (2 hrs, lipid conc. 0.004, dermatoxin mass 3.3 × 10^−7 mg, without phosphatase) was 0.119 absorbance units, the “Absorbance at 538 nm” value (2 hrs, lipid conc. 0.004, dermatoxin mass 3.3 × 10^−8 mg, with phosphatase) was 0.126 absorbance units and the “Absorbance at 538 nm” value (2 hrs, lipid conc. 0.004, dermatoxin mass 3.3 × 10^−8 mg, without phosphatase) was 0.111 absorbance units. For the same sequence, the “Absorbance at 538 nm” value (2 hrs, lipid conc. 0.004, dermatoxin mass 3.3 × 10^−9 mg, with phosphatase) was 0.126 absorbance units, the “Absorbance at 538 nm” value (2 hrs, lipid conc. 0.004, dermatoxin mass 3.3 × 10^−9 mg, without phosphatase) was 0.115 absorbance units and the “Absorbance at 538 nm” value (2 hrs, lipid conc. 0.02, dermatoxin mass 3.3 × 10^−5 mg, with phosphatase) was 0.546 absorbance units. For the same sequence, the “Absorbance at 538 nm” value (2 hrs, lipid conc. 0.02, dermatoxin mass 3.3 × 10^−5 mg, without phosphatase) was 0.633 absorbance units, the “Absorbance at 538 nm” value (2 hrs, lipid conc. 0.02, dermatoxin mass 3.3 × 10^−6 mg, with phosphatase) was 0.480 absorbance units and the “Absorbance at 538 nm” value (2 hrs, lipid conc. 0.02, dermatoxin mass 3.3 × 10^−6 mg, without phosphatase) was 0.263 absorbance units. The “Absorbance at 538 nm” value (2 hrs, lipid conc. 0.02, dermatoxin mass 3.3 × 10^−7 mg, with phosphatase) was 0.140 absorbance units, the “Absorbance at 538 nm” value (2 hrs, lipid conc. 0.02, dermatoxin mass 3.3 × 10^−7 mg, without phosphatase) was 0.141 absorbance units and the “Absorbance at 538 nm” value (2 hrs, lipid conc. 0.02, dermatoxin mass 3.3 × 10^−8 mg, with phosphatase) was 0.132 absorbance units. For the same sequence, the “Absorbance at 538 nm” value (2 hrs, lipid conc. 0.02, dermatoxin mass 3.3 × 10^−8 mg, without phosphatase) was 0.111 absorbance units, the “Absorbance at 538 nm” value (2 hrs, lipid conc. 0.02, dermatoxin mass 3.3 × 10^−9 mg, with phosphatase) was 0.124 absorbance units and the “Absorbance at 538 nm” value (2 hrs, lipid conc. 0.02, dermatoxin mass 3.3 × 10^−9 mg, without phosphatase) was 0.114 absorbance units. For the same sequence, the “Absorbance at 538 nm” value (2 hrs, lipid conc. 0.1, dermatoxin mass 3.3 × 10^−5 mg, with phosphatase) was 2.034 absorbance units, the “Absorbance at 538 nm” value (2 hrs, lipid conc. 0.1, dermatoxin mass 3.3 × 10^−5 mg, without phosphatase) was 1.521 absorbance units and the “Absorbance at 538 nm” value (2 hrs, lipid conc. 0.1, dermatoxin mass 3.3 × 10^−6 mg, with phosphatase) was 1.473 absorbance units. For the same sequence, the “Absorbance at 538 nm” value (2 hrs, lipid conc. 0.1, dermatoxin mass 3.3 × 10^−6 mg, without phosphatase) was 0.759 absorbance units, the “Absorbance at 538 nm” value (2 hrs, lipid conc. 0.1, dermatoxin mass 3.3 × 10^−7 mg, with phosphatase) was 0.173 absorbance units and the “Absorbance at 538 nm” value (2 hrs, lipid conc. 0.1, dermatoxin mass 3.3 × 10^−7 mg, without phosphatase) was 0.267 absorbance units. The “Absorbance at 538 nm” value (2 hrs, lipid conc. 0.1, dermatoxin mass 3.3 × 10^−8 mg, with phosphatase) was 0.136 absorbance units, the “Absorbance at 538 nm” value (2 hrs, lipid conc. 0.1, dermatoxin mass 3.3 × 10^−8 mg, without phosphatase) was 0.132 absorbance units and the “Absorbance at 538 nm” value (2 hrs, lipid conc. 0.1, dermatoxin mass 3.3 × 10^−9 mg, with phosphatase) was 0.134 absorbance units. The “Absorbance at 538 nm” value (2 hrs, lipid conc. 0.1, dermatoxin mass 3.3 × 10^−9 mg, without phosphatase) was 0.121 absorbance units, the “Absorbance at 538 nm” value (18 hrs (d), 1:10-diluted sample, lipid conc. 0, dermatoxin mass 3.3 × 10^−5 mg, with phosphatase) was 0.053 absorbance units and the “Absorbance at 538 nm” value (18 hrs (d), 1:10-diluted sample, lipid conc. 0, dermatoxin mass 3.3 × 10^−5 mg, without phosphatase) was 0.054 absorbance units. For the same sequence, the “Absorbance at 538 nm” value (18 hrs (d), 1:10-diluted sample, lipid conc. 0, dermatoxin mass 3.3 × 10^−6 mg, with phosphatase) was 0.053 absorbance units, the “Absorbance at 538 nm” value (18 hrs (d), 1:10-diluted sample, lipid conc. 0, dermatoxin mass 3.3 × 10^−6 mg, without phosphatase) was 0.052 absorbance units and the “Absorbance at 538 nm” value (18 hrs (d), 1:10-diluted sample, lipid conc. 0, dermatoxin mass 3.3 × 10^−7 mg, with phosphatase) was 0.052 absorbance units. For the same sequence, the “Absorbance at 538 nm” value (18 hrs (d), 1:10-diluted sample, lipid conc. 0, dermatoxin mass 3.3 × 10^−7 mg, without phosphatase) was 0.054 absorbance units, the “Absorbance at 538 nm” value (18 hrs (d), 1:10-diluted sample, lipid conc. 0, dermatoxin mass 3.3 × 10^−8 mg, with phosphatase) was 0.054 absorbance units and the “Absorbance at 538 nm” value (18 hrs (d), 1:10-diluted sample, lipid conc. 0, dermatoxin mass 3.3 × 10^−8 mg, without phosphatase) was 0.053 absorbance units. The “Absorbance at 538 nm” value (18 hrs (d), 1:10-diluted sample, lipid conc. 0, dermatoxin mass 3.3 × 10^−9 mg, with phosphatase) was 0.053 absorbance units, the “Absorbance at 538 nm” value (18 hrs (d), 1:10-diluted sample, lipid conc. 0, dermatoxin mass 3.3 × 10^−9 mg, without phosphatase) was 0.053 absorbance units and the “Absorbance at 538 nm” value (18 hrs (d), 1:10-diluted sample, lipid conc. 0.004, dermatoxin mass 3.3 × 10^−5 mg, with phosphatase) was 0.092 absorbance units. The “Absorbance at 538 nm” value (18 hrs (d), 1:10-diluted sample, lipid conc. 0.004, dermatoxin mass 3.3 × 10^−5 mg, without phosphatase) was 0.096 absorbance units, the “Absorbance at 538 nm” value (18 hrs (d), 1:10-diluted sample, lipid conc. 0.004, dermatoxin mass 3.3 × 10^−6 mg, with phosphatase) was 0.090 absorbance units and the “Absorbance at 538 nm” value (18 hrs (d), 1:10-diluted sample, lipid conc. 0.004, dermatoxin mass 3.3 × 10^−6 mg, without phosphatase) was 0.081 absorbance units. For the same sequence, the “Absorbance at 538 nm” value (18 hrs (d), 1:10-diluted sample, lipid conc. 0.004, dermatoxin mass 3.3 × 10^−7 mg, with phosphatase) was 0.066 absorbance units, the “Absorbance at 538 nm” value (18 hrs (d), 1:10-diluted sample, lipid conc. 0.004, dermatoxin mass 3.3 × 10^−7 mg, without phosphatase) was 0.056 absorbance units and the “Absorbance at 538 nm” value (18 hrs (d), 1:10-diluted sample, lipid conc. 0.004, dermatoxin mass 3.3 × 10^−8 mg, with phosphatase) was 0.063 absorbance units. The “Absorbance at 538 nm” value (18 hrs (d), 1:10-diluted sample, lipid conc. 0.004, dermatoxin mass 3.3 × 10^−8 mg, without phosphatase) was 0.054 absorbance units and the “Absorbance at 538 nm” value (18 hrs (d), 1:10-diluted sample, lipid conc. 0.004, dermatoxin mass 3.3 × 10^−9 mg, with phosphatase) was 0.062 absorbance units.
